The test system of experiment [1] is T1, MEK½.
T1 construct: other: Pheneger et al., 2006
The settings on record: Pheneger et al., 2006; read-out: Primary Target(s) (IC50): MEK½; cited from earlier work.

For experiment [2], the target named is MEK1 (Homo sapiens, UniProt Q02750). The conditions noted are these: read-out: Primary Target(s) (IC50): MEK1; cited from earlier work.
The test system of experiment [3] is FM6. Put plainly: NRAS mutant melanoma cell viability (CellTiter-Glo). The format is cell-based, human.
In experiment [4] the test system is SKMEL147. As to the kind of experiment: Melanoma cell viability (CellTiter-Glo). The format is cell-based, human. The settings on record: for HuMax-AXL-ADC sensitivity: 0.0001 to 10 µg/mL, 5 days.
Experiment [5] has as its system SKMEL2R. Put plainly: NRAS mutant melanoma cell viability (CellTiter-Glo). Format: cell-based, human.
Experiment [6] has as its system SKMEL28. Put plainly: Melanoma cell viability (CellTiter-Glo). The format is cell-based, human. The settings on record: for HuMax-AXL-ADC sensitivity: 0.0001 to 10 µg/mL, 5 days.
Experiment [7] deals with M082. Put plainly: Patient-derived melanoma culture viability (CellTiter-Glo). The format is cell-based, human. The settings on record: for HuMax-AXL-ADC sensitivity: 8 days.
In experiment [8] the test system is M019R. The experiment is described as above. The format is cell-based, human.
In experiment [9] the test system is SKMEL28R. As to the kind of experiment: Melanoma cell viability (CellTiter-Glo). The settings on record: for HuMax-AXL-ADC sensitivity: 0.0001 to 10 µg/mL, 5 days. The format is cell-based, human.
The subject of experiment [10] is BLM. As to the kind of experiment: NRAS mutant melanoma cell viability (CellTiter-Glo). Format: cell-based, human.
The subject of experiment [11] is M016. Put plainly: Patient-derived melanoma culture viability (CellTiter-Glo). Format: cell-based, human. The settings on record: for HuMax-AXL-ADC sensitivity: 8 days.
Experiment [12] deals with SKMEL2. As to the kind of experiment: NRAS mutant melanoma cell viability (CellTiter-Glo). The format is cell-based, human.
Experiment [13] deals with A375R. Put plainly: Melanoma cell viability (CellTiter-Glo). Format: cell-based, human.
Experiment [14] has as its system A875. Put plainly: Melanoma cell viability (CellTiter-Glo). The format is cell-based, human. The settings on record: for HuMax-AXL-ADC sensitivity: 0.0001 to 10 µg/mL, 5 days.
The test system of experiment [15] is C-Raf/BRAF/BRAF V600E. The conditions noted are these: read-out: Primary Target(s) (IC50): C-Raf/BRAF/BRAF V600E; Mordant et al., 2010; cited from earlier work.
The target of experiment [16] is C-Raf (Homo sapiens, UniProt P04049). The settings on record: literature reference per drug in Table 1; read-out: Primary Target(s) (IC50): C-Raf (also printed Raf-1, C-Raf-1, C-RAF); cited from earlier work.
C-Raf, sequence (P04049 whole entry): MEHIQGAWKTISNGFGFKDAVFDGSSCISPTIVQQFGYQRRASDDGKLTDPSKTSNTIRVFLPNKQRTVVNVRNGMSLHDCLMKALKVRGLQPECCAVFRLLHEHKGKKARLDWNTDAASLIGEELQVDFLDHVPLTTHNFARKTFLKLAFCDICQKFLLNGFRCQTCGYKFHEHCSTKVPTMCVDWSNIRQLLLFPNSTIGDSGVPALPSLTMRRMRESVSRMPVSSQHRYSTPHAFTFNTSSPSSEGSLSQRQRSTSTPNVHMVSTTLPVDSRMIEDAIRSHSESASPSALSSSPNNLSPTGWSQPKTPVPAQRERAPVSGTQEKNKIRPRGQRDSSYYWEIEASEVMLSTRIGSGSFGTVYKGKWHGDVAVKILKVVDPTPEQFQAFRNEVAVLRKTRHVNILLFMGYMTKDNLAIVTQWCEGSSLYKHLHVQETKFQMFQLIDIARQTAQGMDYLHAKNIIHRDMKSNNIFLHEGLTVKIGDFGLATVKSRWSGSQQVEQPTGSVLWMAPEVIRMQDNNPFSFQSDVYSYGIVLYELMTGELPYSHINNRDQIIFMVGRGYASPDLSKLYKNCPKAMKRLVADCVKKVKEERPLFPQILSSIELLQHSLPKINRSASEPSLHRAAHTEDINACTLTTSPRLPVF
For experiment [17], the target named is MAP4K5 (KHS1) (Homo sapiens, UniProt Q9Y4K4). The conditions noted are these: Bollag et al., 2010; read-out: Primary Target(s) (IC50): MAP4K5 (KHS1); cited from earlier work.
MAP4K5 (KHS1), sequence (Q9Y4K4 whole entry, species assumed): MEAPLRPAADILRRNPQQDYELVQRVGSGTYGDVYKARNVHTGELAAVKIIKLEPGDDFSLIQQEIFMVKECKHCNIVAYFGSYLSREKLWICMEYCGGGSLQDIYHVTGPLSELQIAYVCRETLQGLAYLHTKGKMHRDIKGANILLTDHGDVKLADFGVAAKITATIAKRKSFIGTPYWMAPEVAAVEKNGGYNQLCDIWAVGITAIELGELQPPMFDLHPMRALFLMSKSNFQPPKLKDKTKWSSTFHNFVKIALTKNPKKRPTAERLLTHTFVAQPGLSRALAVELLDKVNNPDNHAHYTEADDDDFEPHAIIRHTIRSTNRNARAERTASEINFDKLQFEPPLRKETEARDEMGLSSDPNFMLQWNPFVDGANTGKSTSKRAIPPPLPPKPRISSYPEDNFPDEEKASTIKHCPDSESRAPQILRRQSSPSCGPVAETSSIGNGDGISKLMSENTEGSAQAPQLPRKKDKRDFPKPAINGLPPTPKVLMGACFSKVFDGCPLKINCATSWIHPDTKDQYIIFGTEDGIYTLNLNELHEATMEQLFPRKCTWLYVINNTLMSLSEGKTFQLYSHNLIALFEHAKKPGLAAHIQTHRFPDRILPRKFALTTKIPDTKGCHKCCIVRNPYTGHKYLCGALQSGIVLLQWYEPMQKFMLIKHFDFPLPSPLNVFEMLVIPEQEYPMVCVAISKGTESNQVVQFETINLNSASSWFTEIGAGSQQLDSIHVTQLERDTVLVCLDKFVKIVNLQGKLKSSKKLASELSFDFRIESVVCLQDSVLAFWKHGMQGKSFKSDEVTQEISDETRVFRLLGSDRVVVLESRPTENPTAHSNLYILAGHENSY
The test system of experiment [18] is COLO679. As to the kind of experiment: Melanoma cell viability (CellTiter-Glo). The settings on record: 0.0001 to 10 µg/mL, 5 days. The format is cell-based, human.
Experiment [19] deals with PAXF1657 tumors. As to the kind of experiment: PAXF1657 pancreas cancer PDX model. The format is in vivo, NMRI nu/nu mice. The conditions noted are these: day 0.
Experiment [20] concerns A431 tumors. Put plainly: A431 xenograft model (high Gas6). The format is in vivo, SCID mice. The conditions noted are these: 3 mg/kg. The protocol: Tumor induction was performed by subcutaneous injection of 5 × 10^6 A431 or LCLC-103H tumor cells (both obtained from Leibniz-Institut - Deutsche Sammlung von Mikroorganismen und Zellkulturen GmbH (DSMZ)) in 200 µL PBS in the right flank of female SCID mice. Treatment was started 14-21 days after tumor cell inoculation, when the average tumor size was >100-200 mm^3 and distinct tumor growth was observed. Mice received a single injection or a total of 4 biweekly intraperitoneal injections with IgG1-AXL-vcMMAE ADCs or control antibody (unconjugated IgG1-b12), as indicated. Tumor volume was determined at least two times per week. Tumor volumes (mm^3) were calculated from caliper (PLEXX) measurements as: 0.52 × (length) × (width)^2.

For experiment [21], the system named is SKMEL147 tumors. As to the kind of experiment: SKMEL147 melanoma xenograft model. Format: in vivo, NMRI nude mice.
Experiment [22] deals with LCLC-103H xenograft tumors. Put plainly: LCLC-103H xenograft model. Format: in vivo, SCID mice. The protocol:
5 × 10^6 LCLC-103H (large cell lung carcinoma) tumor cells (obtained from Leibniz-Institut DSMZ-Deutsche Sammlung von Mikroorganismen und Zellkulturen GmbH (DSMZ)) in 200 µL PBS were injected subcutaneously in the right flank of female SCID mice. Starting 14-21 days after tumor cell inoculation, when the average tumor size was >100-200 mm^3 and distinct tumor growth was observed, a single injection with 1 mg/kg (20 µg/mouse) IgG1-AXL-vcMMAE antibodies (as described in Supplementary Example 1) or control (unconjugated IgG1-b12) was given intraperitoneally (100 µL/mouse). Tumor volume was determined at least two times per week. Tumor volumes (mm^3) were calculated from caliper (PLEXX) measurements as: 0.52 × (length) × (width)^2.
Tumor induction was performed by subcutaneous injection of 5 × 10^6 A431 or LCLC-103H tumor cells (both obtained from Leibniz-Institut - Deutsche Sammlung von Mikroorganismen und Zellkulturen GmbH (DSMZ)) in 200 µL PBS in the right flank of female SCID mice. Treatment was started 14-21 days after tumor cell inoculation, when the average tumor size was >100-200 mm^3 and distinct tumor growth was observed. […] Tumor volume was determined at least two times per week. Tumor volumes (mm^3) were calculated from caliper (PLEXX) measurements as: 0.52 × (length) × (width)^2.

For experiment [23], the system named is A431 cells. Put plainly: Antibody-dependent cell-mediated cytotoxicity (51Cr release). The settings on record: concentrations up to 10 µg/mL; PBMC effector to target ratio 100:1. The format is cell-based, human. As to the method:
The ability of anti-AXL antibodies to induce ADCC of A431 epidermoid carcinoma cells was determined as explained below. As effector cells, peripheral blood mononuclear cells from healthy volunteers (UMC Utrecht, The Netherlands) were used.
A431 cells were collected (5×10^6 cells) in culture medium (RPMI 1640 culture medium supplemented with 10% fetal calf serum (FSC)), to which 100 µCi ^51Cr (Chromium-51; Amersham Biosciences Europe GmbH, Roosendaal, The Netherlands) had been added, and the mixture was incubated in a 37° C. water bath for 1 hour (hr) while shaking. After washing of the cells (twice in PBS, 1200 rpm, 5 min), the cells were resuspended in RPMI1640/10% FSC and counted by trypan blue exclusion. […]
Peripheral blood mononuclear cells (healthy volunteers, UMC Utrecht, Utrecht, The Netherlands) were isolated from 45 mL of freshly drawn heparin blood by Ficoll (Bio Whittaker; lymphocyte separation medium, cat 17-829E) according to the manufacturer’s instructions. After resuspension of cells in RPMI1640/10% FSC, cells were counted by trypan blue exclusion and diluted to a density of 1×10^7 cells/mL.
50 µl of ^51Cr-labeled targets cells were pipetted into 96-well plates, and 50 µl of antibody were added, diluted in RPMI1640/10% FSC (3-fold dilutions at final concentrations range 0.01-10 µg/mL). […] The percentage specific lysis was calculated as follows: […]

[24] abbreviates: 4 mg/kg i.v. on day 12 and day 19 after tumor cell injection.

Where “and” joins values, the source holds several entries; their conditions need not be identical. Identical values can stand only once.

MEK1, sequence (Q02750 whole entry): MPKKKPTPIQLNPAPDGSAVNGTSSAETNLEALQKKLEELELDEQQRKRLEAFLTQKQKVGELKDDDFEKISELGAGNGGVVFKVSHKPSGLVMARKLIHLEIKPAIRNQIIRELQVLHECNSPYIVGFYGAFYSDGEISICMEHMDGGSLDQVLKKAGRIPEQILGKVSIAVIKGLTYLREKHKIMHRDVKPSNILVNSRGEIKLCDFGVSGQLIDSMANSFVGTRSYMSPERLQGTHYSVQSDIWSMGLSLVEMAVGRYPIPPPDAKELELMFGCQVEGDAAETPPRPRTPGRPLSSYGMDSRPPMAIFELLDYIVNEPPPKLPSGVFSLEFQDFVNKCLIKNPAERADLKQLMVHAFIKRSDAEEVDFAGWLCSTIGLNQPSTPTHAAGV

`Cn1cnc2c(F)c(Nc3ccc(Br)cc3F)c(C(=O)NOCCO)cc21` [Binimetinib, 1H-Benzimidazole-6-carboxamide, 5-[(4-bromo-2-fluorophenyl)amino]-4-fluoro-N-(2-hydroxyethoxy)-1-methyl-]: in experiment [1], the IC50 was ~12 nM and 12 nM.
`O=C(c1ccc(F)c(F)c1Nc1ccc(I)cc1F)N1CC(O)([C@@H]2CCCCN2)C1` [Cobimetinib, [3,4-difluoro-2-[(2-fluoro-4-iodophenyl)amino]phenyl][3-hydroxy-3-(2S)-2-piperidinyl-1-azetidinyl]-methanone]: the IC50 in [2] is about 4.2 nM.
For `CCCS(=O)(=O)Nc1ccc(F)c(C(=O)c2c[nH]c3ncc(Cl)cc23)c1F` [PLX4720, N-(3-(5-chloro-1H-pyrrolo[2,3-b]pyridine-3-carbonyl)-2,4-difluorophenyl)propane-1-sulfonamide], the PLX4720 sensitivity entry is recorded as “insensitive” in [3]; “resistant” in experiment [4]; “insensitive” in [5]; “sensitive” in [6]; “resistant” in experiment [7]; “resistant” in [8] (M019R (Table 16)). Also, the PLX4720 sensitivity result is reported as “resistant” in [9]; “insensitive” in experiment [10]; “resistant” in experiment [11]; “insensitive” in [12]; “resistant” in [13]; “sensitive” in experiment [14]. Also, in experiment [8] (M019R, 8 days), the “drug sensitivity in vitro: PLX4720 sensitivity” value is listed as “insensitive”.
In the case of `Cn1c(Nc2ccc(C(F)(F)F)cc2)nc2cc(Oc3ccnc(-c4ncc(C(F)(F)F)[nH]4)c3)ccc21` [RAF265, 1-methyl-5-[2-[5-(trifluoromethyl)-1H-imidazol-2-yl]pyridin-4-yl]oxy-N-[4-(trifluoromethyl)phenyl]benzimidazol-2-amine], the IC50 in experiment [15] was 3 to 60 nM.
Regarding `CN(C)CCOc1ccc(-c2nc(-c3ccncc3)c(-c3ccc4c(c3)CC/C4=N\O)[nH]2)cc1` [SB590885, (E)-5-(2-(4-(2-(dimethylamino)ethoxy)phenyl)-4-(pyridin-4-yl)-1H-imidazol-5-yl)-2,3-dihydroinden-1-one oxime], the IC50 in experiment [16] is 1.72 nM.
`CC(=O)Nc1cccc(-n2c(=O)n(C3CC3)c(=O)c3c(Nc4ccc(I)cc4F)n(C)c(=O)c(C)c32)c1` [Trametinib, N-(3-(3-cyclopropyl-5-(2-fluoro-4-iodophenylamino)-6,8-dimethyl-2,4,7-trioxo-3,4,6,7-tetrahydropyrido[4,3-d]pyrimidin-1(2H)-yl)phenyl)acetamide]: the values for the trametinib sensitivity entry in experiment [5] and in experiment [12] were “insensitive” and “sensitive”, respectively. In addition, in [8] (M019R, 8 days), the “drug sensitivity in vitro: trametinib sensitivity” value is on record as “insensitive”.
Regarding `CCCS(=O)(=O)Nc1ccc(F)c(C(=O)c2c[nH]c3ncc(-c4ccc(Cl)cc4)cc23)c1F` [Vemurafenib, N-[3-[[5-(4-chlorophenyl)-1H-pyrrolo[2,3-b]pyridin-3-yl]carbonyl]-2,4-difluorophenyl]-1-propanesulfonamide], in [17], the IC50 was 51 nM.
On to IgG1-AXL-107-vcMMAE, for which the HuMax-AXL-ADC sensitivity result in experiment [18] is given as “did not show changes in viability”; in experiment [18] (listed as HuMax-AXL-ADC), “Resistant”; in experiment [4], “sensitive”; in [4] (listed as HuMax-AXL-ADC), “Sensitive”; in experiment [6], “did not show changes in viability”; in experiment [6] (listed as HuMax-AXL-ADC), “Resistant”. The HuMax-AXL-ADC sensitivity entry in [7] was “did not show a different response”; in experiment [7] (listed as HuMax-AXL-ADC), “Insensitive”; in [9] it was “sensitive”; in experiment [9] (listed as HuMax-AXL-ADC) it was “Sensitive”; in experiment [11], “sensitive”; in experiment [11] (listed as HuMax-AXL-ADC), “Sensitive”. In addition, the figures for the HuMax-AXL-ADC sensitivity entry in [14] and in experiment [14] (listed as HuMax-AXL-ADC) were “sensitive” and “Sensitive”, respectively. The “growth of PAXF1657 tumors compared to the control group” value in [19] (2 mg/kg i.v.) is recorded as “significantly reduced the growth”. For the same molecule, the “growth of PAXF1657 tumors” value in experiment [19] (4 mg/kg i.v.) is on record as “induced tumor regression”. In addition, the “anti-tumor activity in the A431 xenograft model” value in [20] is “growth inhibition”. The “anti-tumor activity in the SKMEL147 melanoma xenograft model” value in experiment [21] (2 mg/kg i.v. on day 12 and day 19 after tumor cell injection) is listed as “tumor growth inhibition”; in experiment [21] (setting [24]), “strong tumor regression”; in experiment [21] (4 mg/kg i.v. on day 12 and day 19 after tumor cell injection, listed as HuMax-AXL-ADC), “profound anti-tumor effect”. Besides, the “day until which tumor regression lasted” value in [21] (4 mg/kg) is about 50 days. For the same molecule, the “effect of retreatment after tumor regrowth” value in [21] (single dose of 4 mg/kg on day 55, n=4) was “tumor regression in all four mice”. Moreover, the “anti-tumor activity in the LCLC-103H xenograft model” value in experiment [22] (1 mg/kg (Example 13, FIG. 14B)) is recorded as “regression”. Also, the “anti-tumor activity in established SC LCLC-103H tumors” value in experiment [22] (single injection 1 mg/kg intraperitoneally (Example 9)) is reported as “tumor regression”.
Regarding “IgG1-AXL-107: AXL-specific human IgG1,κ antibody, VH SEQ ID NO:1, VL SEQ ID NO:2, Ig1 domain binding”, the “ADCC in A431 cells (percentage specific lysis)” value in [23] is reported as “did not induce significant ADCC”. Besides, the “anti-tumor activity in the SKMEL147 melanoma xenograft model” value in experiment [21] (setting [24]) was “did not show tumor growth inhibition”.
